Assay results from patent US20020028938A1, “Prostaglandin endoperoxide H synthase biosynthesis inhibitors” (priority 1997, published 2002).

Columns and labels:
[1] = system: air pouch prostaglandin biosynthesis (Cox-2); test: Carrageenan induced air pouch prostaglandin biosynthesis model (CAP); format: in vivo, rat; conditions: 3 mpk, rat; for inhibition in vivo at 3 mg/kg: 4 h, read-out: CAP % Inhib. @ 3 mpk
Protocol: To compare the mean responses of the treatment groups, analysis of variance was applied. Percent inhibition values were determined by comparing the individual treatment mean values to the mean of the control group. Linear regression was used to estimate IC50's/ED50's in appropriate assays.
Carrageenan induced air pouch prostaglandin biosynthesis model (CAP) Air pouches are formed in the backs of male Sprague Dawley rats by injecting 20 mL of sterile air on day 0. Three days later the pouch was reinflated with an additional 10 mL of sterile air. On day 7, 1 mL of saline containing 0.2 % lambda carrageenan (Sigma Chemical Co.) is injected into the pouch to induce the inflammatory reaction that is characterized by the release of prostaglandins. Test compounds are dosed at 0.1 to 10 mg/kg 30 minutes prior to carrageenan. Four hours after the carrageenan injection the pouch is lavaged and levels of prostaglandins are determined by enzyme immuno-assay using commercially available kits. […] Values for Cox-2 inhibition that are parenthetical indicate ED50 values.

[2] = molecular target: T1, recombinant human Cox-1 (r-hu Cox1) (Homo sapiens, UniProt P23219); test: Recombinant human PGHS-1 enzyme assay (RHUCX1); format: biochemical
T1 construct: made in house; host or cells: baculovirus/Sf9 insect cells (microsomes)
T1 sequence (P23219 24-599): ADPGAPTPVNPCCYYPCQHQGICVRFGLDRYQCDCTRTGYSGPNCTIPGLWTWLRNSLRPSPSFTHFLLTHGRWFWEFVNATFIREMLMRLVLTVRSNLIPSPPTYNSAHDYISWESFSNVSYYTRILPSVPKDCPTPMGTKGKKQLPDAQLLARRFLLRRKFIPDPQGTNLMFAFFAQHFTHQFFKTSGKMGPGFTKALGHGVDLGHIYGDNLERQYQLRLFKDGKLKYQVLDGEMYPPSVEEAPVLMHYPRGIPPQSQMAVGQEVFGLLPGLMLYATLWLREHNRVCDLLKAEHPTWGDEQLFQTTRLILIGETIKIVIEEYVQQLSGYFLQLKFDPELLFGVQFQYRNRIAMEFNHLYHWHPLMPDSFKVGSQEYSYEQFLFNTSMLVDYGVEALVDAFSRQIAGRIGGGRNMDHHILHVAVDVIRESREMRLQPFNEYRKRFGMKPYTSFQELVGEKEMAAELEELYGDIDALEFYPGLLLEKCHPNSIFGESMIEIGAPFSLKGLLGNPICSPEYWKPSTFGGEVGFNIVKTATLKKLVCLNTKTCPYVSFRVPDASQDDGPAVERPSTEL
Outline: (§1)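 Prostaglandin biosynthesis was measured as PGE2 output, read by enzyme immunoassay after a 2.5-minute room-temperature reaction stopped with HCl and neutralized with NaOH.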

[3] = molecular target: T2, recombinant human Cox-2 (r-hu Cox-2) (Homo sapiens, UniProt P35354); test: Recombinant human PGHS-2 enzyme assay (RHUCX2); format: biochemical; conditions: for IC50: read-out: RHUCX2 IC50 (parenthetical value)
T2 construct: made in house; host or cells: baculovirus/Sf9 insect cells (microsomes)
T2 sequence (P35354 18-604): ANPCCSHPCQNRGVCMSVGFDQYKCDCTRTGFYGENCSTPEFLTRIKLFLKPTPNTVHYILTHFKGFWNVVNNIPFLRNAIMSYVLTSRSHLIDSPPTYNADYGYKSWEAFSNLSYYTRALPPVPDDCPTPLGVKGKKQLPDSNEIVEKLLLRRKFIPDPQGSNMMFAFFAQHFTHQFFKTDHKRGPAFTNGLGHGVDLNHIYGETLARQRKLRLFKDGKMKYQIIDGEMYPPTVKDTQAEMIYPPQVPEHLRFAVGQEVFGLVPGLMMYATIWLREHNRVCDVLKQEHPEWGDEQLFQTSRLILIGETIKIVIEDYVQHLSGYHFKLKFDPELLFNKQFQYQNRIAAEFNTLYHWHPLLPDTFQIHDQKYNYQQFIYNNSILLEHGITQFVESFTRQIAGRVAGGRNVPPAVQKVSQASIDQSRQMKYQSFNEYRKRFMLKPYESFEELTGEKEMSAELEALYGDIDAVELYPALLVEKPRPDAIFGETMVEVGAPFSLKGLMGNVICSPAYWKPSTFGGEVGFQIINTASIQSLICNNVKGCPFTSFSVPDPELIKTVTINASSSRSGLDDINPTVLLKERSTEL
Outline: as §1

[4] = molecular target: T3, Human Whole Platelet Cyclooxygenase-1 (Homo sapiens, UniProt P23219); test: Human Whole Platelet Cyclooxygenase-1 assay (HWPX); format: cell-based; conditions: for IC50: read-out: HWPX IC50 (parenthetical value)
T3 construct: from tissue; host or cells: human blood: isolated platelets (A4) or heparinised whole blood (A9)
T3 sequence (P23219 24-599): as the sequence (P23219 24-599) above
Protocol: Blood from normal healthy volunteers is collected into tubes containing ACD (acid citrate dextrose) as the anticoagulant. This blood is centrifuged at 175×g to prepare platelet rich plasma. The platelet rich plasma is then centrifuged at 100×g to pellet the white blood cells, leaving the platelets in the supernatant. The supernatant is layered on a cushion of 0.7 mL of 10% bovine serum albumin in Tyrodes solution (Gibco; Grand Island, N.Y.) and then centrifuged at 1000×g. The resulting supernatant from this centrifuigation is then removed and 11 mL of Tyrodes solution is added to the remaining pellet of platelets. The platelets are then aliquoted at 120 μl into a 96 well plate. Experimental compounds are added and allowed to pre-incubate for 10 minutes. At the end of this pre-incubation period, the calcium ionophore A23187 is added to a final concentration of 8.8 μM and the incubation is continued for ten minutes. The reaction is stopped by adding cold 6 mM EDTA, the incubation mixture is centrifuged at 220×g, and the supernatants are then analyzed for thromboxane using a commercial kit from Cayman Chemical (Ann Arbor, Mich.

[5] = molecular target: T4, human amnionic whole cell cyclooxygenase-2 (WISH cells) (Homo sapiens, UniProt P35354); test: IL-1β induced PGE2 production in WISH cells; format: cell-based; conditions: for IC50: read-out: Wish IC50 (parenthetical value)
T4 construct: endogenous in cells; host or cells: human amnionic WISH cells, induced with IL-1beta
T4 sequence (P35354 18-604): T2 sequence (P35354 18-604)
Outline: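 Confluent (80%) WISH cells were stimulated with 5 ng/ml IL-1β in serum-free Neuman-Tytell medium, with or without test compound in DMSO (0.01% v/v). PGE2 in the culture medium was measured by EIA against standards prepared in the same medium, read by optical density.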

[6] = read-out: RHUCX1 % Inh. at Dose
[7] = 10 μM, read-out: RHUCX1 % Inh. at Dose
[8] = 0.1 μM, read-out: RHUCX2 % Inh. at Dose
[9] = 1 μM, read-out: RHUCX2 % Inh. at Dose
[10] = read-out: Wish % Inhib. at Dose
[11] = read-out: RHUCX2 % Inh. at Dose

Row | melting point | inhibition at 100 µM [2, 6] | IC50 [4] | IC50 [5] | inhibition at 0.1 µM [3, 8] | SMILES | also measured
1 | 207 to 208 °C |  | 7760 nM | 20 nM | 51% | Cc1cc(-c2c(-c3ccc(S(C)(=O)=O)cc3)cnn(-c3ccc(F)c(Cl)c3)c2=O)ccc1F [Example 247, 2-(3-Chloro-4-fluorophenyl)-4-(4-fluoro-3-mehylphenyl)-5-[4-(methylsulfonyl)phenyl]-3(2H)-pyridazinone] | inhibition at 1 µM ([2]; 1 μM, read-out: RHUCX1 % Inh. at Dose): 55%; inhibition at 10 µM [2, 7]: 72%; inhibition at 1 µM [3, 9]: 71%; inhibition at 10 µM ([3]; 10 μM, read-out: RHUCX2 % Inh. at Dose): 99%
2 | 151 to 153 °C | 0% | 14900 nM | 4 nM | 83% | CC(C)(C)COc1c(-c2ccc(S(C)(=O)=O)cc2)cnn(-c2cccc(Cl)c2)c1=O [Example 338, 2-(3-Chlorophenyl)-4-(2,2-dimethylpropoxy)-5-[4-(methylsulfonyl)phenyl]-3(2H)-pyridazinone] | inhibition at 1 µM [3, 9]: 100%
3 |  | 3% |  |  |  | CC(C)CSc1c(-c2ccc(S(C)(=O)=O)cc2)cnn(-c2cccc(Cl)c2)c1=O [Example 361, 2-(3-Chlorophenyl)-4-[2-(methylpropyl)thiol]-5-[4-(methylsulfonyl)phenyl]-3(2H)-pyridazinone] | IC50 [3]: 11 nM; inhibition in vivo at 3 mg/kg [1]: 65%
4 | 222 to 224 °C | 8% | 8400 nM | 20 nM |  | Cc1ccc(-c2c(-c3ccc(S(C)(=O)=O)cc3)cnn(-c3cccc(Cl)c3)c2=O)cc1 [Example 370, 2-(3-Chlorophenyl)-4-(4-methylphenyl)-5-[4-(methylsulfonyl)phenyl]-3(2H)-pyridazinone] | IC50 [3]: 48 nM
5 | 208 to 210 °C |  | 320 nM | 17 nM | 62% | NS(=O)(=O)c1ccc(-c2cnn(-c3ccc(F)c(Cl)c3)c(=O)c2-c2ccc(F)cc2)cc1 [Example 401, 2-(3-Chloro-4-fluorophenyl)-4-(4-fluorophenyl)-5-[4-(aminosulfonyl)phenyl]-3(2H)-pyridazinone] | IC50 ([2]; read-out: RHUCX1 IC50 (parenthetical value)): 753 nM; inhibition at 0.01 µM [3, 11]: 48%; inhibition at 1 µM [3, 9]: 96%
6 | 110 to 112 °C |  |  |  |  | C=C(C)CCOc1c(-c2ccc(S(C)(=O)=O)cc2)cnn(-c2cccc(Cl)c2)c1=O [Example 427, 2-(3-Chlorophenyl)-4-(3-methyl-3-butenoxy)-5-[4-(methylsulfonyl)phenyl]-3(2H)-pyridazinone] | inhibition in vivo at 3 mg/kg [1]: 78%

The next lines start with the compound.

Row | SMILES | melting point | inhibition at 100 µM [2, 6] | IC50 [4] | IC50 [5] | inhibition at 0.1 µM [3, 8] | also measured
7 | CC(C)COc1c(-c2ccc(S(C)(=O)=O)c(F)c2)cnn(-c2ccc(F)c(Cl)c2)c1=O [Example 205, 2-(3-Chloro-4-fluorophenyl)-4-(2-methylpropoxy)-5-[3-fluoro-4-(methylsulfonyl)phenyl]-3(2H)-pyridazinone] | 142 to 144 °C |  |  |  |  | inhibition in vivo at 3 mg/kg [1]: 54%
8 | CS(=O)(=O)c1ccc(-c2cnn(-c3ccc(F)cc3)c(=O)c2C2CCCCC2)cc1 [Example 228, 2-(4-Fluorophenyl)-4-cyclohexyl-5-[4-(methylsulfonyl)phenyl]-3(2H)-pyridazinone] | 231 to 233 °C | 7% | 19600 nM | 86 nM |  | IC50 [3]: 209 nM
9 | CS(=O)(=O)c1ccc(-c2cnn(-c3cccc(Cl)c3)c(=O)c2C2CCCCC2)cc1 [Example 368, 2-(3-Chlorophenyl)-4-cyclohexyl-5-[4-(methylsulfonyl)phenyl]-3(2H)-pyridazinone] | 85 to 90 °C | 13% | 13700 nM |  | 65% | inhibition at 1 µM [3, 9]: 96%; inhibition at 0.01 µM [5, 10]: 33%; inhibition at 0.03 µM ([5]; 0.03 μM, read-out: Wish % Inhib. at Dose): 64%
10 | CC(C)CCc1c(-c2ccc(S(C)(=O)=O)cc2)cnn(-c2ccc(F)cc2)c1=O [Example 378] |  |  |  |  |  | CAP % Inhib. @ 3 mpk [1]: 59%
11 | CC(C)(C)COc1c(-c2ccc(S(N)(=O)=O)c(F)c2)cnn(CC(F)(F)F)c1=O [Example 381, 2-(2,2,2-Trifluoroethyl)-4-(2,2-dimethylpropoxy)-5-[3-fluoro-4-(aminosulfonyl)phenyl]-3(2H)-pyridazinone] | 144 to 145 °C | 0% |  | 75 nM |  | IC50 [3]: 188 nM; inhibition at 30 µM ([4]; 30 μM, read-out: HWPX % Inhib. at Dose): 31%; inhibition at 100 µM ([4]; 100 μM, read-out: HWPX % Inhib. at Dose): 91%
12 | Cc1cc(-c2c(-c3ccc(S(N)(=O)=O)cc3)cnn(-c3ccc(F)cc3)c2=O)ccc1F [Example 390] |  |  |  |  |  | RHUCX1 % Inh. at Dose (μM) ([2]; 1 μM): 45 @ 1%; RHUCX1 % Inh. at Dose (μM) ([2]; 10 μM): 88 @ 10%; RHUCX2 % Inh. at Dose (μM) ([3]; 0.1 μM): 60 @ 0.1%; RHUCX2 % Inh. at Dose (μM) ([3]; 1 μM): 72 @ 1%; RHUCX2 % Inh. at Dose (μM) ([3]; 10 μM): 99 @ 10%; CAP % Inhib. @ 3 mpk [1]: 60%
13 | Cc1cc(-c2c(-c3ccc(S(N)(=O)=O)cc3)cnn(-c3cccc(Cl)c3)c2=O)ccc1F [Example 391, 2-(3-Chlorophenyl)-4-(4-fluoro-3-methylphenyl)-5-[4-(aminosulfonpl)phenyl]-3(2h)-pyridazinone] |  |  |  |  |  | CAP % Inhib. @ 3 mpk [1]: 61%
14 | CC(C)CCc1c(-c2ccc(S(N)(=O)=O)cc2)cnn(-c2ccc(F)c(F)c2)c1=O [Example 404, 2-(3,4-Difluorophenyl)-4-(3-methylbutyl)-5-[4-(aminosulfonyl)phenyl]-3(2H)-pyridazinone] | 171 to 173 °C | 77% | 337 nM |  | 92% | inhibition at 10 µM [2, 7]: 47%; inhibition at 0.01 µM [3, 11]: 57%; inhibition at 0.01 µM [5, 10]: 58%; inhibition at 0.1 µM ([5]; 0.1 μM, read-out: Wish % Inhib. at Dose): 96%
15 | CS(=O)(=O)c1ccc(-c2cnn(-c3cccc(Cl)c3)c(=O)c2OCC2CC2)cc1 [Example 418, 2-(3-Chlorophenyl)-4-cyclopropanemethoxy-5-[4-(methylsulfonyl)phenyl]-3(2H)-pyridazinone] | 158 to 161 °C | 33% | 14200 nM | 250 nM | 52% | inhibition at 0.025 µM ([3]; 0.025 μM, read-out: RHUCX2 % Inh. at Dose): 53%; inhibition at 1 µM [3, 9]: 85%
16 | CC(C)(O)COc1c(-c2ccc(S(N)(=O)=O)cc2)cnn(-c2ccc(F)c(F)c2)c1=O [Example 459] |  |  |  |  |  | CAP % Inhib. @ 3 mpk [1]: 45%
17 | C[C@@H](CO)COc1c(-c2ccc(S(N)(=O)=O)cc2)cnn(-c2ccc(F)c(F)c2)c1=O [Example 464, (S)-2-(3,4-Difluorophenyl)-4-(3-hydroxy-2-methyl-1-propoxy)-5-[4-(aminosulfonyl)phenyl]-3(2H)-pyridazinone] |  |  |  |  |  | inhibition in vivo at 3 mg/kg [1]: 70%
